Experimental data published in PubChem BioAssay AID2060903 (Molecular Pharmacology Branch, DTP, NCI, 2025).

System: 377384-186-R-J1-PDC complex spheroid viability
Assay: Anticancer human tumor 377384-186-R-J1-PDC patient-derived pancreatic carcinoma cell line growth inhibition [RAS]
Conditions: for IC50: curve of first compound; for viability, T/C: stronger effect = lower value
In short: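 Agents were tested in combination matrices in half-log decrements from a top concentration at or near clinical Cmax (10 microM if undetermined). Targets were multi-cell spheroids of tumour lines plus HUVEC and MSC stromal cells.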

[1] = second compound 0.000949 µM, first compound 0.0316 µM
[2] = second compound 0.000949 µM, first compound 0.1 µM
[3] = second compound 0.000949 µM, first compound 0.316 µM
[4] = second compound 0.000949 µM, first compound 1 µM
[5] = second compound 0.000949 µM, first compound 3.16 µM
[6] = second compound 0.000949 µM, first compound 10 µM
[7] = second compound 0.003 µM, first compound 0.0316 µM
[8] = second compound 0.003 µM, first compound 0.1 µM
[9] = second compound 0.003 µM, first compound 0.316 µM
[10] = second compound 0.003 µM, first compound 1 µM
[11] = second compound 0.003 µM, first compound 3.16 µM
[12] = second compound 0.003 µM, first compound 10 µM
[13] = second compound 0.00949 µM, first compound 0.0316 µM
[14] = second compound 0.00949 µM, first compound 0.1 µM
[15] = second compound 0.00949 µM, first compound 0.316 µM
[16] = second compound 0.00949 µM, first compound 1 µM
[17] = second compound 0.00949 µM, first compound 3.16 µM
[18] = second compound 0.00949 µM, first compound 10 µM
[19] = second compound 0.03 µM, first compound 0.0316 µM
[20] = second compound 0.03 µM, first compound 0.1 µM
[21] = second compound 0.03 µM, first compound 0.316 µM
[22] = second compound 0.03 µM, first compound 1 µM
[23] = second compound 0.03 µM, first compound 3.16 µM
[24] = second compound 0.03 µM, first compound 10 µM
[25] = second compound 0.0949 µM, first compound 0.0316 µM
[26] = second compound 0.0949 µM, first compound 0.1 µM
[27] = second compound 0.0949 µM, first compound 0.316 µM
[28] = second compound 0.0949 µM, first compound 1 µM
[29] = second compound 0.0949 µM, first compound 3.16 µM
[30] = second compound 0.0949 µM, first compound 10 µM
[31] = second compound 0.3 µM, first compound 0.0316 µM
[32] = second compound 0.3 µM, first compound 0.1 µM
[33] = second compound 0.3 µM, first compound 0.316 µM
[34] = second compound 0.3 µM, first compound 1 µM
[35] = second compound 0.3 µM, first compound 3.16 µM
[36] = second compound 0.3 µM, first compound 10 µM
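Note: spheroids exposed to compounds for seven days before readout.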

CC1(O)CCCC1n1c(=O)c(C(F)F)cc2cnc(NC3CCN(S(C)(=O)=O)CC3)nc21 (centres undefined) + CCn1c(-c2cc(N3CCN(C)CC3)cnc2C(C)OC)c2c3cc(ccc31)-c1csc(n1)CC(NC(=O)C1CC1C)C(=O)N1CCCC(N1)C(=O)OCC(C)(C)C2
IC50 (second compound 0.000949 µM): < 31.6 nM | IC50 (second compound 0.003 µM): < 31.6 nM | IC50 (second compound 0.00949 µM): < 31.6 nM | IC50 (second compound 0.03 µM): < 31.6 nM | IC50 (second compound 0.0949 µM): < 31.6 nM | IC50 (second compound 0.3 µM): < 31.6 nM | viability, T/C [1]: 46.6% | viability, T/C [2]: 24.9% | viability, T/C [3]: 16.1% | viability, T/C [4]: 14.2% | viability, T/C [5]: 18.5% | viability, T/C [6]: 4.43% | viability, T/C [7]: 20.3% | viability, T/C [8]: 10.9% | viability, T/C [9]: 9.42% | viability, T/C [10]: 11.9% | viability, T/C [11]: 13.4% | viability, T/C [12]: 2.79% | viability, T/C [13]: 4.59% | viability, T/C [14]: 4.26% | viability, T/C [15]: 4.8% | viability, T/C [16]: 4.95% | viability, T/C [17]: 6.03% | viability, T/C [18]: 2.54% | viability, T/C [19]: 2.77% | viability, T/C [20]: 2.5% | viability, T/C [21]: 3.09% | viability, T/C [22]: 3.54% | viability, T/C [23]: 3.12% | viability, T/C [24]: 2% | viability, T/C [25]: 1.91% | viability, T/C [26]: 2.25% | viability, T/C [27]: 2.46% | viability, T/C [28]: 2.54% | viability, T/C [29]: 1.98% | viability, T/C [30]: 2.3% | viability, T/C [31]: 2% | viability, T/C [32]: 2.25% | viability, T/C [33]: 2.49% | viability, T/C [34]: 2.5% | viability, T/C [35]: 1.75% | viability, T/C [36]: 1.85%

CCC(CC)c1cc(NC2CCC(N)C2)n2nccc2n1 (centres undefined) + CCn1c(-c2cc(N3CCN(C)CC3)cnc2C(C)OC)c2c3cc(ccc31)-c1csc(n1)CC(NC(=O)C1CC1C)C(=O)N1CCCC(N1)C(=O)OCC(C)(C)C2
IC50 (second compound 0.000949 µM): < 31.6 nM | IC50 (second compound 0.003 µM): < 31.6 nM | IC50 (second compound 0.00949 µM): < 31.6 nM | IC50 (second compound 0.03 µM): < 31.6 nM | IC50 (second compound 0.0949 µM): < 31.6 nM | IC50 (second compound 0.3 µM): < 31.6 nM | viability, T/C [1]: 48.2% | viability, T/C [2]: 55% | viability, T/C [3]: 46.9% | viability, T/C [4]: 32.9% | viability, T/C [5]: 0.81% | viability, T/C [6]: 2.3% | viability, T/C [7]: 21.7% | viability, T/C [8]: 16.6% | viability, T/C [9]: 20.9% | viability, T/C [10]: 10.7% | viability, T/C [11]: 0.83% | viability, T/C [12]: 2.38% | viability, T/C [13]: 4.86% | viability, T/C [14]: 4.6% | viability, T/C [15]: 5.64% | viability, T/C [16]: 3.71% | viability, T/C [17]: 0.61% | viability, T/C [18]: 3.05% | viability, T/C [19]: 2.61% | viability, T/C [20]: 2.47% | viability, T/C [21]: 2.47% | viability, T/C [22]: 2.01% | viability, T/C [23]: 0.73% | viability, T/C [24]: 1.89% | viability, T/C [25]: 1.88% | viability, T/C [26]: 1.8% | viability, T/C [27]: 1.76% | viability, T/C [28]: 2.22% | viability, T/C [29]: 0.82% | viability, T/C [30]: 2.4% | viability, T/C [31]: 2.16% | viability, T/C [32]: 1.88% | viability, T/C [33]: 1.75% | viability, T/C [34]: 1.54% | viability, T/C [35]: 0.54% | viability, T/C [36]: 1.98%
